Test results published in patent US11793849B2, “Method of Chinese herbal medicine extract used for treating multiple diseases caused by drug resistant bacteria infection” (priority 2016, dated 2023).
In brackets after ≈: the same amount, converted by molar mass. Read-outs that look alike come from different tables or passages of the source.

Tested on: MDRPA
Test: MIC determination, microdilution broth method;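 note: broth microdilution per NCCLS recommendations, testing Pithecellobium clypearia water or ethanol extracts against multidrug-resistant Pseudomonas aeruginosa, with MIC50 and MIC90 derived statistically from individual MICs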
[1] = 20 MDRPAs, EA = 60% ethanol extract
[2] = 20 MDRPAs, EA = 95% ethanol extract
[3] = MDRPAs P1-P20, single use, EA=P. clypearia 10% ethanol extract
[4] = MDRPAs P1-P20, single use, EA=P. clypearia water extract
[5] = Pseudomonas aeruginosa, read-out: MIC (single use), strain P1, EA=P. clypearia 10% ethanol extract
[6] = Pseudomonas aeruginosa, read-out: MIC (single use), strain P1, EA=P. clypearia water extract
[7] = Pseudomonas aeruginosa, read-out: MIC (single use), strain P2, EA=P. clypearia 10% ethanol extract
[8] = Pseudomonas aeruginosa, read-out: MIC (single use), strain P2, EA=P. clypearia water extract
[9] = Pseudomonas aeruginosa, read-out: MIC (single use), strain P3, EA=P. clypearia 10% ethanol extract
[10] = Pseudomonas aeruginosa, read-out: MIC (single use), strain P3, EA=P. clypearia water extract
[11] = Pseudomonas aeruginosa, read-out: MIC (single use), strain P4, EA=P. clypearia 10% ethanol extract
[12] = Pseudomonas aeruginosa, read-out: MIC (single use), strain P4, EA=P. clypearia water extract
[13] = Pseudomonas aeruginosa, read-out: MIC (single use), strain P5, EA=P. clypearia 10% ethanol extract
[14] = Pseudomonas aeruginosa, read-out: MIC (single use), strain P5, EA=P. clypearia water extract
[15] = Pseudomonas aeruginosa, read-out: MIC (single use), strain P6, EA=P. clypearia 10% ethanol extract
[16] = Pseudomonas aeruginosa, read-out: MIC (single use), strain P6, EA=P. clypearia water extract
[17] = Pseudomonas aeruginosa, read-out: MIC (single use), strain P7, EA=P. clypearia 10% ethanol extract
[18] = Pseudomonas aeruginosa, read-out: MIC (single use), strain P7, EA=P. clypearia water extract
[19] = Pseudomonas aeruginosa, read-out: MIC (single use), strain P8, EA=P. clypearia 10% ethanol extract
[20] = Pseudomonas aeruginosa, read-out: MIC (single use), strain P8, EA=P. clypearia water extract
[21] = Pseudomonas aeruginosa, read-out: MIC (single use), strain P9, EA=P. clypearia 10% ethanol extract
[22] = Pseudomonas aeruginosa, read-out: MIC (single use), strain P9, EA=P. clypearia water extract
[23] = Pseudomonas aeruginosa, read-out: MIC (single use), strain P10, EA=P. clypearia 10% ethanol extract
[24] = Pseudomonas aeruginosa, read-out: MIC (single use), strain P10, EA=P. clypearia water extract
[25] = Pseudomonas aeruginosa, read-out: MIC (single use), strain P11, EA=P. clypearia 10% ethanol extract
[26] = Pseudomonas aeruginosa, read-out: MIC (single use), strain P11, EA=P. clypearia water extract
[27] = Pseudomonas aeruginosa, read-out: MIC (single use), strain P12, EA=P. clypearia 10% ethanol extract
[28] = Pseudomonas aeruginosa, read-out: MIC (single use), strain P12, EA=P. clypearia water extract
[29] = Pseudomonas aeruginosa, read-out: MIC (single use), strain P13, EA=P. clypearia 10% ethanol extract
[30] = Pseudomonas aeruginosa, read-out: MIC (single use), strain P13, EA=P. clypearia water extract
[31] = Pseudomonas aeruginosa, read-out: MIC (single use), strain P14, EA=P. clypearia 10% ethanol extract
[32] = Pseudomonas aeruginosa, read-out: MIC (single use), strain P14, EA=P. clypearia water extract
[33] = Pseudomonas aeruginosa, read-out: MIC (single use), strain P15, EA=P. clypearia 10% ethanol extract
[34] = Pseudomonas aeruginosa, read-out: MIC (single use), strain P15, EA=P. clypearia water extract
[35] = Pseudomonas aeruginosa, read-out: MIC (single use), strain P16, EA=P. clypearia 10% ethanol extract
[36] = Pseudomonas aeruginosa, read-out: MIC (single use), strain P16, EA=P. clypearia water extract
[37] = Pseudomonas aeruginosa, read-out: MIC (single use), strain P17, EA=P. clypearia 10% ethanol extract
[38] = Pseudomonas aeruginosa, read-out: MIC (single use), strain P17, EA=P. clypearia water extract
[39] = Pseudomonas aeruginosa, read-out: MIC (single use), strain P18, EA=P. clypearia 10% ethanol extract
[40] = Pseudomonas aeruginosa, read-out: MIC (single use), strain P18, EA=P. clypearia water extract
[41] = Pseudomonas aeruginosa, read-out: MIC (single use), strain P19, EA=P. clypearia 10% ethanol extract
[42] = Pseudomonas aeruginosa, read-out: MIC (single use), strain P19, EA=P. clypearia water extract
[43] = Pseudomonas aeruginosa, read-out: MIC (single use), strain P20, EA=P. clypearia 10% ethanol extract
[44] = Pseudomonas aeruginosa, read-out: MIC (single use), strain P20, EA=P. clypearia water extract
[45] = single use, 20 MDRPAs, section of the 10% ethanol extract
[46] = single use, 20 MDRPAs, section of the 60% ethanol extract
[47] = single use, 20 MDRPAs, section of the 95% ethanol extract

Experimental: Determination methods of a Minimal Inhibitory Concentration (MIC) and a Minimum Bactericidal Concentration (MBC) of a test product: the MIC and the MBC of the Pithecellobium clypearia Benth water or ethanol extract to the MDRAB are determined by a microdilution broth method. And it is operated by referring to the microdilution broth method recommended by National Committee for Clinical Laboratory Standards (NCCLS).
By determining the MIC and the MBC of the drug and making statistics of the data to obtain MIC50, MIC90, MBC50 and MBC90, the effect of the MDRA resistance of the drug is evaluated.
Test method: the MDRPA (serial No.: P1-P20) strains are tested and are evaluated with reference to the method in the first embodiment.

C[C@@H](O)[C@H]1C(=O)N2C(C(=O)O)=C(SCCN=CN)C[C@H]12 [IMP, imipenem]
MIC50 [1]: 32 µg/mL (≈ 107 µM)
MIC90 [1]: 64 µg/mL (≈ 214 µM)
MIC Range [1]: 4 to 64 µg/mL
MIC50 [2]: 32 µg/mL (≈ 107 µM)
MIC90 [2]: 64 µg/mL (≈ 214 µM)
MIC Range [2]: 4 to 64 µg/mL
MIC50 [3]: 32 µg/mL (≈ 107 µM)
MIC90 [3]: 64 µg/mL (≈ 214 µM)
MIC Range [3]: 4 to 64 µg/mL
MIC50 [4]: 32 µg/mL (≈ 107 µM)
MIC90 [4]: 64 µg/mL (≈ 214 µM)
MIC Range [4]: 4 to 64 µg/mL
MIC50 (Pseudomonas aeruginosa): 32 µg/mL (≈ 107 µM)
MIC90 (Pseudomonas aeruginosa): 64 µg/mL (≈ 214 µM)
MIC [5]: 32 µg/mL (≈ 107 µM)
MIC [6]: 32 µg/mL (≈ 107 µM)
MIC [7]: 64 µg/mL (≈ 214 µM)
MIC [8]: 64 µg/mL (≈ 214 µM)
MIC [9]: 64 µg/mL (≈ 214 µM)
MIC [10]: 64 µg/mL (≈ 214 µM)
MIC [11]: 32 µg/mL (≈ 107 µM)
MIC [12]: 32 µg/mL (≈ 107 µM)
MIC [13]: 64 µg/mL (≈ 214 µM)
MIC [14]: 64 µg/mL (≈ 214 µM)
MIC [15]: 32 µg/mL (≈ 107 µM)
MIC [16]: 32 µg/mL (≈ 107 µM)
MIC [17]: 32 µg/mL (≈ 107 µM)
MIC [18]: 32 µg/mL (≈ 107 µM)
MIC [19]: 64 µg/mL (≈ 214 µM)
MIC [20]: 64 µg/mL (≈ 214 µM)
MIC [21]: 32 µg/mL (≈ 107 µM)
MIC [22]: 32 µg/mL (≈ 107 µM)
MIC [23]: 64 µg/mL (≈ 214 µM)
MIC [24]: 64 µg/mL (≈ 214 µM)
MIC [25]: 8 µg/mL (≈ 26.7 µM)
MIC [26]: 8 µg/mL (≈ 26.7 µM)
MIC [27]: 32 µg/mL (≈ 107 µM)
MIC [28]: 32 µg/mL (≈ 107 µM)
MIC [29]: 8 µg/mL (≈ 26.7 µM)
MIC [30]: 8 µg/mL (≈ 26.7 µM)
MIC [31]: 32 µg/mL (≈ 107 µM)
MIC [32]: 32 µg/mL (≈ 107 µM)
MIC [33]: 32 µg/mL (≈ 107 µM)
MIC [34]: 32 µg/mL (≈ 107 µM)
MIC [35]: 16 µg/mL (≈ 53.4 µM)
MIC [36]: 16 µg/mL (≈ 53.4 µM)
MIC [37]: 16 µg/mL (≈ 53.4 µM)
MIC [38]: 16 µg/mL (≈ 53.4 µM)
MIC [39]: 32 µg/mL (≈ 107 µM)
MIC [40]: 32 µg/mL (≈ 107 µM)
MIC [41]: 64 µg/mL (≈ 214 µM)
MIC [42]: 64 µg/mL (≈ 214 µM)
MIC [43]: 4 µg/mL (≈ 13.4 µM)
MIC [44]: 4 µg/mL (≈ 13.4 µM)
MIC50 [45]: 32 µg/mL (≈ 107 µM)
MIC90 [45]: 64 µg/mL (≈ 214 µM)
MIC50 [46]: 32 µg/mL (≈ 107 µM)
MIC90 [46]: 64 µg/mL (≈ 214 µM)
MIC50 [47]: 32 µg/mL (≈ 107 µM)
MIC90 [47]: 64 µg/mL (≈ 214 µM)

C[C@H]1COc2c(N3CCN(C)CC3)c(F)cc3c(=O)c(C(=O)O)cn1c23 [LVX, Levofloxacin]
MIC50 [1]: 4 µg/mL (≈ 11.1 µM)
MIC90 [1]: 32 µg/mL (≈ 88.6 µM)
MIC Range [1]: 0.5 to 128 µg/mL
MIC50 [2]: 4 µg/mL (≈ 11.1 µM)
MIC90 [2]: 32 µg/mL (≈ 88.6 µM)
MIC Range [2]: 0.5 to 128 µg/mL
MIC50 [3]: 4 µg/mL (≈ 11.1 µM)
MIC90 [3]: 32 µg/mL (≈ 88.6 µM)
MIC Range [3]: 0.5 to 128 µg/mL
MIC50 [4]: 4 µg/mL (≈ 11.1 µM)
MIC90 [4]: 32 µg/mL (≈ 88.6 µM)
MIC Range [4]: 0.5 to 128 µg/mL
MIC50 (Pseudomonas aeruginosa): 4 µg/mL (≈ 11.1 µM)
MIC90 (Pseudomonas aeruginosa): 32 µg/mL (≈ 88.6 µM)
MIC [5]: 32 µg/mL (≈ 88.6 µM)
MIC [6]: 32 µg/mL (≈ 88.6 µM)
MIC [7]: 4 µg/mL (≈ 11.1 µM)
MIC [8]: 4 µg/mL (≈ 11.1 µM)
MIC [9]: 8 µg/mL (≈ 22.1 µM)
MIC [10]: 8 µg/mL (≈ 22.1 µM)
MIC [11]: 8 µg/mL (≈ 22.1 µM)
MIC [12]: 8 µg/mL (≈ 22.1 µM)
MIC [13]: 1 µg/mL (≈ 2.77 µM)
MIC [14]: 1 µg/mL (≈ 2.77 µM)
MIC [15]: 0.5 µg/mL (≈ 1.38 µM)
MIC [16]: 0.5 µg/mL (≈ 1.38 µM)
MIC [17]: 32 µg/mL (≈ 88.6 µM)
MIC [18]: 32 µg/mL (≈ 88.6 µM)
MIC [19]: 1 µg/mL (≈ 2.77 µM)
MIC [20]: 1 µg/mL (≈ 2.77 µM)
MIC [21]: 4 µg/mL (≈ 11.1 µM)
MIC [22]: 4 µg/mL (≈ 11.1 µM)
MIC [23]: 128 µg/mL (≈ 354 µM)
MIC [24]: 128 µg/mL (≈ 354 µM)
MIC [25]: 2 µg/mL (≈ 5.53 µM)
MIC [26]: 2 µg/mL (≈ 5.53 µM)
MIC [27]: 1 µg/mL (≈ 2.77 µM)
MIC [28]: 1 µg/mL (≈ 2.77 µM)
MIC [29]: 2 µg/mL (≈ 5.53 µM)
MIC [30]: 2 µg/mL (≈ 5.53 µM)
MIC [31]: 32 µg/mL (≈ 88.6 µM)
MIC [32]: 32 µg/mL (≈ 88.6 µM)
MIC [33]: 2 µg/mL (≈ 5.53 µM)
MIC [34]: 2 µg/mL (≈ 5.53 µM)
MIC [35]: 32 µg/mL (≈ 88.6 µM)
MIC [36]: 32 µg/mL (≈ 88.6 µM)
MIC [37]: 4 µg/mL (≈ 11.1 µM)
MIC [38]: 4 µg/mL (≈ 11.1 µM)
MIC [39]: 4 µg/mL (≈ 11.1 µM)
MIC [40]: 4 µg/mL (≈ 11.1 µM)
MIC [41]: 16 µg/mL (≈ 44.3 µM)
MIC [42]: 16 µg/mL (≈ 44.3 µM)
MIC [43]: 4 µg/mL (≈ 11.1 µM)
MIC [44]: 4 µg/mL (≈ 11.1 µM)
MIC50 [45]: 4 µg/mL (≈ 11.1 µM)
MIC90 [45]: 32 µg/mL (≈ 88.6 µM)
MIC50 [46]: 4 µg/mL (≈ 11.1 µM)
MIC90 [46]: 32 µg/mL (≈ 88.6 µM)
MIC50 [47]: 4 µg/mL (≈ 11.1 µM)
MIC90 [47]: 32 µg/mL (≈ 88.6 µM)
